# From patent US20170298081A1, “CONDENSED HETEROCYCLIC COMPOUND” (KASUMA PARTNERS INC., priority 2014, published 2017)
# System: PCSK9 protein
# Assay: Influence of test compound on PCSK9 protein production amount in HepG2 cells (ELISA)
# Assay type: cell-based, human
# Details: about 24 hours treatment, intracellular PCSK9 protein by ELISA, read-out: IC50 (50% PCSK9 production-suppressing concentration)
# Method: A test compound was added to culture supernatant of cells of the human liver cancer-derived cell strain, HepG2 cells, and intracellular amount of the PCSK9 protein was measured by the enzyme-linked immunosorbent assay (ELISA) after 24 hours. Specifically, the HepG2 cells were inoculated into wells of a 96-well microplate at a density of 5 to 7.5×10^4 cells/well, and the culture supernatant was exchanged with the MEM medium containing 10% lipoprotein deficient serum (LPDS) on the next day. After the cells were further cultured for one day, the culture supernatant was exchanged with the 10% LPDS-containing MEM medium containing a test compound, and the cells were treated with the compound for about 24 hours. The medium for treating the cells was prepared by dissolving the test compound in dimethyl sulfoxide (DMSO), and adding the resulting solution to the 10% LPDS-containing medium. The medium for treating cells for control was prepared by adding DMSO to the 10% LPDS-containing medium at the same final concentration. After completion of the treatment of the cells, a solubilization buffer (1% Nonidet P-40 in phosphate buffered saline) was added to the cells to extract proteins, and they were used as a sample.
# The PCSK9 protein concentration and the total protein concentration in the sample were measured by using Human PCSK9 ELISA Kit produced by R&D Systems (Cat. No. DPC900), and BCA Protein Assay Reagent. Kit produced by Thermo Scientific (Cat. No. 23227) according to the protocols described in the attached manuals, respectively. The PCSK9 protein concentration in each sample was calculated as a concentration per unit mass of proteins. Then, by using PCSK9 production suppressing ratios at various concentrations obtained in accordance with the equation mentioned below, 50% PCSK9 production-suppressing concentration (IC50) of each compound was calculated with a linear regression equation.
# Equation: PCSK9 production-suppressing ratio (%)=[(Average PCSK9 protein concentration in control group−Average PCSK9 protein concentration in test compound-treated group)/Average PCSK9 protein concentration in control group]×100
row,IC50,SMILES
1,4.96 nM,"Nc1ccc(Br)c2oc(-c3ccc(C(F)(F)F)cc3)nc12 [Example 33, 4-Amino-7-bromo-2-(4-trifluoromethylphenyl)benzoxazole]"
2,20.2 nM,"Nc1c(Cl)cc(Cl)c2oc(-c3ccc(C(F)(F)F)cc3)nc12 [Example 34, 4-Amino-5,7-dichloro-2-(4-trifluoromethylphenyl)benzoxazole]"
3,1.24 nM,"Nc1ccc(Cl)c2oc(-c3ccc(C(F)(F)F)cc3)nc12 [Example 35B, 4-Amino-7-chloro-2-(4-trifluoromethylphenyl)benzoxazole]"
4,5.17 nM,"N#Cc1cc(Cl)c2oc(-c3ccc(C(F)(F)F)cc3)nc2c1N [Example 36, 4-Amino-7-chloro-5-cyano-2-(4-trifluoromethylphenyl)benzoxazole]"
5,27.3 nM,N#Cc1ccc(N)c2nc(-c3ccc(C(F)(F)F)cc3)oc12 [Example 38]
6,3.97 nM,"CN(C)c1nc2c(ccc3oc(-c4ccc(C(F)(F)F)cc4)nc32)s1 [Example 40, 7-Dimethylamino-2-(4-trifluoromethylphenyl)thiazolo[4,5-e]benzoxazole]"
7,19.2 nM,"NCc1cccc2oc(-c3ccc(C(F)(F)F)cc3)nc12 [Example 41, 4-Aminomethyl-2-(4-trifluoromethylphenyl)benzoxazole]"
8,25.6 nM,"[O-][n+]1ccc2c(ccc3oc(-c4ccc(C(F)(F)F)cc4)nc32)c1 [Example 43, 2-[4-(Trifluoromethyl)phenyl]oxazolo[4,5-f]isoquinoline 7-oxide]"
9,13.9 nM,"Clc1ccc2nc(-c3nc4c(Cl)cccc4o3)sc2c1 [Example 44, 4-Chloro-2-(6-chloro-benzothiazol-2-yl)benzoxazole]"
10,2.68 nM,"Nc1c(-c2ccc(C(F)(F)F)cc2)[nH]c2c(Cl)c(Cl)ccc12 [Example 45, 3-Amino-6,7-dichloro-2-(4-trifluoromethylphenyl)indole]"
11,45.4 nM,"CCN(CC)c1nc2c(ccc3cc(-c4ccc(C(F)(F)F)cc4)[nH]c32)o1 [Example 47, 2-Diethylamino-7-(4-trifluoromenthylphenyl)-8H-pyrrolo[2,3-e]benzoxazole]"

# Further lines, the compound ahead of its results:
row,SMILES,IC50
1,"COc1ccc2cc3[n+](cc2c1OC)CCc1cc2c(cc1-3)OCO2 [Berberine chloride, reference compound]",> 10000 nM
2,"FC(F)(F)c1ccc(-c2nc3ccc(Cl)c(C(F)(F)F)c3o2)cc1 [Example 1, 6-Chloro-7-trifluoromethyl-2-(4-trifluoromethylphenyl)benzoxazole]",0.802 nM
3,"Fc1c(C(F)(F)F)ccc2nc(-c3ccc(C(F)(F)F)cc3)oc12 [Example 3, 7-Fluoro-6-trifluoromethyl-2-(4-trifluoromethylphenyl)benzoxazole]",8.19 nM
4,"FC(F)(F)c1ccc(-c2nc3c(Cl)c(C(F)(F)F)ccc3o2)cc1 [Example 4, 4-Chloro-5-trifluoromethyl-2-(4-trifluoromethylphenyl)benzoxazole]",0.426 nM
5,"FC(F)(F)c1ccc(-c2nc3ccc(I)c(Cl)c3o2)cc1 [Example 6, 7-Chloro-6-iodo-2-(4-trifluoromethylphenyl)benzoxazole]",2.5 nM
6,"FC(F)(F)c1ccc(-c2nc3ccc(C(F)(F)F)c(Cl)c3o2)cc1 [Example 7, 7-Chloro-6-trifluoromethyl-2-(4-trifluoromethylphenyl)benzoxazole]",0.036 nM
7,"FC(F)(F)c1ccc(-c2nc3c(C(F)(F)F)ccc(Cl)c3o2)cc1 [Example 8, 7-Chloro-4-trifluoromethyl-2-(4-trifluoromethylphenyl)benzoxazole]",0.153 nM
8,"N#Cc1ccc2nc(-c3ccc(C(F)(F)F)cc3)oc2c1Cl [Example 9, 7-Chloro-6-cyano-2-(4-trifluoromethylphenyl)benzoxazole]",0.0182 nM
9,"N#Cc1cc(Cl)c2nc(-c3ccc(C(F)(F)F)cc3)oc2c1 [Example 11, 4-Chloro-6-cyano-2-(4-trifluoromethylphenyl)benzoxazole]",1.34 nM
10,"Fc1c(Cl)cc2nc(-c3ccc(C(F)(F)F)cc3)oc2c1Cl [Example 12, 5,7-Dichloro-6-fluoro-2-(4-trifluoromethylphenyl)benzoxazole]",2.94 nM
11,"FC(F)(F)c1ccc(-c2nc3ccc(C4CC4)c(C(F)(F)F)c3o2)cc1 [Example 14, 6-Cyclopropyl-7-trifluoromethyl-2-(4-trifluoromethylphenyl)benzoxazole]",4.54 nM
12,"CC(=O)Nc1ccc2nc(-c3ccc(C(F)(F)F)cc3)oc2c1C(F)(F)F [Example 16, 6-Acetamido-7-trifluoromethyl-2-(4-trifluoromethylphenyl)benzoxazole]",2.08 nM
13,"O=C(O)CCC(=O)Nc1ccc2nc(-c3ccc(C(F)(F)F)cc3)oc2c1C(F)(F)F [Example 18, 6-(3-Carbonylpropanamido)-7-trifluoromethyl-2-(4-trifluoromethylphenyl)benzoxazole]",16.3 nM
14,"N#Cc1ccc2nc(-c3ccc(C(F)(F)F)cc3)oc2c1C(F)(F)F [Example 19, 6-Cyano-7-trifluoromethyl-2-(4-trifluoromethylphenyl)benzoxazole]",0.188 nM
15,"FC(F)(F)c1ccc(-c2nc3ccc(NC4CC4)c(C(F)(F)F)c3o2)cc1 [Example 20, 6-(Cyclopropylamino)-7-trifluoromethyl-2-(4-trifluoromethylphenyl)benzoxazole]",3.95 nM
16,"OCCNc1ccc2nc(-c3ccc(C(F)(F)F)cc3)oc2c1C(F)(F)F [Example 21, 6-(2-Hydroxyethylamino)-7-trifluoromethyl-2-(4-trifluoromethylphenyl)benzoxazole]",5.85 nM
17,"COc1cc(C#N)c(Cl)c2oc(-c3ccc(C(F)(F)F)cc3)nc12 [Example 22, 7-Chloro-6-cyano-4-methoxy-2-(4-trifluoromenthylphenyl)benzoxazole]",99 nM
18,"CCc1nc2c(ccc3oc(-c4ccc(C(F)(F)F)cc4)nc32)o1 [Example 23, 2-Ethyl-7(4-trifluoromethylphenyl)benzo[2,1-d:3,4-d′]bisoxazole]",52.3 nM
19,"FC(F)(F)c1ccc(-c2nc3ccc(C(F)(F)F)cc3o2)cc1 [Example 24, 6-(Trifluoromethyl)-2-[4-(trifluoromethyl)phenyl]benzoxazole]",21.4 nM
20,"FC(F)(F)c1ccc(-c2nc3cccc(C(F)(F)F)c3o2)cc1 [Example 25, 7-(Trifluoromethyl)-2-[4-(trifluoromethyl)phenyl]benzoxazole]",24.5 nM
21,"FC(F)(F)c1ccc(-c2nc3cc(Cl)c(C(F)(F)F)cc3o2)cc1 [Example 27, 5-Chloro-6-(trifluoromethyl)-2-[4-(trifluoromethyl)phenyl]benzoxazole]",12.3 nM
22,"FC(F)(F)c1ccc(-c2nc3cc(C(F)(F)F)cc(Cl)c3o2)cc1 [Example 28, 7-Chloro-5-(trifluoromethyl)-2-[4-(trifluoromethyl)phenyl]benzoxazole]",1.35 nM
23,"N#Cc1ccc2nc(-c3ccc(C(F)(F)F)cc3)oc2c1 [Example 29, 6-Cyano-2-[4-(trifluoromethyl)phenyl]benzoxazole]",27 nM
24,"FC(F)(F)c1ccc(-c2nc3c(ccc4cc[nH]c43)o2)cc1 [Example 31, 2-(4-Trifluoromethylphenyl)-8H-pyrrolo[2,3-e]benzoxazole]",29.7 nM

# System: not given
# Assay: not given
# Details: not given
row,melting point,SMILES
1,132 to 134 °C,"Nc1c(Cl)ccc2oc(-c3ccc(C(F)(F)F)cc3)nc12 [Example 35A, 4-Amino-5-chloro-2-(4-trifluoromethylphenyl)benzoxazole]"
2,149 to 150 °C,"Nc1ccc(Cl)c2oc(-c3ccc(C(F)(F)F)cc3)nc12 [Example 35B, 4-Amino-7-chloro-2-(4-trifluoromethylphenyl)benzoxazole]"

# System: dietary hyperlipidemia hamsters
# Assay: Efficacy test in dietary hyperlipidemia hamsters (LDL cholesterol decreasing ratio)
# Assay type: in vivo, Slc:Syrian male hamsters
# Details: dose 0.01 mg/kg, oral once a day for seven days, high fat diet hamsters
# Method: As test animals, the Slc:Syrian male hamsters were used. In order to create dietary hyperlipidemia models, the hamsters were fed ad libitum with a high fat diet (mixed diet of 0.5% cholesterol and 10% palm oil) for a period from two weeks before the start of the administration of the test compound to the end of the experiment. Blood was collected one day before the day of the start of the administration, and the total blood cholesterol concentration was measured by the direct method using an automatic analyzer. On the basis of this total blood cholesterol concentration, the animals were divided into groups. From the next day, the test compound was orally administered once a day for seven days, and the animals were dissected on the day following the day of the final administration. The LDL-cholesterol concentration in the collected blood was measured by the direct method using an automatic analyzer, and LDL cholesterol decreasing ratio was calculated in accordance with the following equation for each group.
# Equation: LDL cholesterol decreasing ratio (%)=[(Average LDL-cholesterol concentration of control group−Average LDL-cholesterol concentration of test compound-administered group)/Average LDL-cholesterol concentration of control group]×100
row,SMILES,LDL cholesterol decreasing ratio (%)
1,"FC(F)(F)c1ccc(-c2nc3ccc(C(F)(F)F)c(Cl)c3o2)cc1 [Example 7, 7-Chloro-6-trifluoromethyl-2-(4-trifluoromethylphenyl)benzoxazole]",45.5%

# Same assay, conditions: dose 0.04 mg/kg, oral once a day for seven days, high fat diet hamsters
row,SMILES,LDL cholesterol decreasing ratio (%)
1,"FC(F)(F)c1ccc(-c2nc3ccc(C(F)(F)F)c(Cl)c3o2)cc1 [Example 7, 7-Chloro-6-trifluoromethyl-2-(4-trifluoromethylphenyl)benzoxazole]",56.9%

# Same assay, conditions: dose 0.2 mg/kg, oral once a day for seven days, high fat diet hamsters
row,SMILES,LDL cholesterol decreasing ratio (%)
1,"FC(F)(F)c1ccc(-c2nc3cc(C(F)(F)F)cc(Cl)c3o2)cc1 [Example 28, 7-Chloro-5-(trifluoromethyl)-2-[4-(trifluoromethyl)phenyl]benzoxazole]",63.6%

# Same assay, conditions: dose 1 mg/kg, oral once a day for seven days, high fat diet hamsters
row,SMILES,LDL cholesterol decreasing ratio (%)
1,"N#Cc1ccc2nc(-c3ccc(C(F)(F)F)cc3)oc2c1C(F)(F)F [Example 19, 6-Cyano-7-trifluoromethyl-2-(4-trifluoromethylphenyl)benzoxazole]",35.2%
2,"FC(F)(F)c1ccc(-c2nc3ccc(C(F)(F)F)cc3o2)cc1 [Example 24, 6-(Trifluoromethyl)-2-[4-(trifluoromethyl)phenyl]benzoxazole]",32.6%

# Same assay, conditions: dose 5 mg/kg, oral once a day for seven days, high fat diet hamsters
row,SMILES,LDL cholesterol decreasing ratio (%)
1,"FC(F)(F)c1ccc(-c2nc3ccc(I)c(Cl)c3o2)cc1 [Example 6, 7-Chloro-6-iodo-2-(4-trifluoromethylphenyl)benzoxazole]",41.8%

# Same assay, conditions: dose 50 mg/kg, oral once a day for seven days, high fat diet hamsters
row,SMILES,LDL cholesterol decreasing ratio (%)
1,"CC(C)OC(=O)C(C)(C)Oc1ccc(C(=O)c2ccc(Cl)cc2)cc1 [Phenofibrate, reference compound]",25.7%
